Results reported in patent publication US11008572B2, “Methods and compositions for modulating splicing” (SKYHAWK THERAPEUTICS, INC., priority 2017, dated 2021).
Where two headings read alike, the source gives them in different places.

How the values were obtained:
Type in all cases: cell-based
[1] = tested on: FOXM1^A2 mRNA and FOXM1^BC mRNA; experiment: Splicing assay (FOXM1), qPCR of isoform mRNAs
Outline: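 RT-qPCR read-out after 24 h compound exposure at 37° C., 0.2% DMSO, top dose 10 μM with 4-fold 8-point dilutions, 20,000 cells per well. Copy numbers from plasmid standard curves, PPIA-normalized, expressed as isoform ratio relative to DMSO.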

IKBKAP^FL mRNA = experiment: IKBKAP splicing assay, qPCR; settings: 24 hours of incubation
Procedure: (§1) Various cells lines were treated with the SMSMs described herein. RNA was then isolated, cDNA synthesized, qPCR performed and the levels of IKBKAP targets of the SMSMs were determined.
(§2) On the day of the experiment, a 96-well plate was seeded with the cell lines of interest. The cells were diluted with full growth media to a concentration of 2.0×10^5 cells/mL and 100 μL of cells were added to each well (20,000 cells per well). The cells were treated with a compound immediately after plating.
(§3) The compounds were then added to the cell plate using the HP compound dispenser. In the initial experiment, a top concentration of 10 μM and an 8 point 4-fold dilution scheme was used. The stock compounds were made at a concentration of 5 mM, and the DMSO concentration was set to 0.2%. DMSO was used to normalize all the compound-containing wells and the untreated cells.
(§4) The treated cells were incubated at 37° C. in a 5% CO2 incubator for the desired amount of time. Plates were placed in a plastic bag with a wet paper towel to prevent evaporation.
(§5) RNA was isolated using the Cells to CT kit (ThermoFisher, AM1728). The cells were washed once with 100 μL cold PBS. 50 μL of lysis buffer was added to each well/tube (49.5 μL lysis buffer+0.5 μL DNase I per well/tube). The lysis reaction was mixed and incubated at room temperature for 5 minutes. 5 μL of stop solution was added directly into each cell lysis reaction and mixed by pipetting up and down 5 times. The plates/tubes were incubated at room temperature for 2 minutes then placed on ice if the cDNA synthesis was to be performed immediately. Otherwise, the plates/tubes were stored at −80° C.
(§6) cDNA synthesis reactions were then performed. 40 μL RT master mix was added to PCR tubes or plate wells. 10 μL of RNA was added to each tube/well. The RT thermal cycler program was then run and tubes or plate wells were incubated at 37° C. for 1 hour, then at 95° C. for 5 minutes to deactivate the enzyme.
(§7) The qPCR was performed using a QuantStudio 6 instrument (ThermoFisher) and the following cycling conditions and according to the tables below. All samples and standards were analyzed in triplicate. Cycle 1: 2 minutes at 50° C. Cycle 2: 10 minutes at 95° C. Cycle 3 (repeat 40 times): 15 seconds at 95° C., 1 minute at 60° C.
(§8) The determined IKBKAP^FL and […] isoform quantities were then used to determine the IKBKAP^FL: IKBKAP^Δ20 ratio at increasing SMSM compound concentrations. The PPIA quantities were used in the normalization to account of cell proliferation effects of the compounds.
(§9) An assay to measure the IKBKAP^FL mRNA and IKBKAP^Δ20 mRNA simultaneously in cell wells was performed. The RNA values were measured relative to DMSO control and also included a housekeeping gene, PPIA to ensure data was consistent. The mRNA values were measured after 24 hours of incubation with the SMSM compounds.

IKBKAP^Δ20 mRNA = experiment: IKBKAP splicing assay, qPCR; settings: 24 hours of incubation
Procedure: as §1, §2, §3, §4, §5, §6, §7, §8, §9

A-673 cells = experiment: Cell viability, crystal violet staining; settings: Homo sapiens, A673, cell viability
Outline: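 Readout is absorbance at 570 nm of crystal violet, taken up in 0.1 M sodium citrate in 50% ethanol after staining with 0.5% dye in 25% methanol. Plates held 5×10^3 cells per well, and compounds were added one day after seeding for 72 hours. Data are relative to vehicle, mean±SE.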

[2] = Splicing (IC50), Example 22; settings: spliced gene and cells not stated
Procedure: A-673 cell viability […], splicing (IC50) and brain AUC/Plasma AUC of SMSMs were determined. As shown in the tables below SMSMs had high CNS exposure.

[3] = FoxM1 BC mRNA decrease (exon included), read-out: Splice IC50 (nM) FoxM1 BC mRNA decrease (exon included)
[4] = read-out: Splice EC50 (nM) FoxM1 A mRNA increase (exon excluded)
[5] = read-out: A-673 IC50 (nM) Cell viability
[6] = 24 h, FoxM1 BC mRNA decrease (exon included), 0.1-1000 nM, 24 hours, read-out: Splice IC50 (nM), FoxM1 BC mRNA decrease (exon included)
[7] = FoxM1 A mRNA increase (exon excluded), 0.1-1000 nM, 24 hours, read-out: Splice EC50 (nM), FoxM1 A mRNA increase (exon excluded)
[8] = read-out: A-673 IC50 (nM), Cell viability

Row | Structure (SMILES) | EC50 (IKBKAP^FL mRNA) [nM] | IC50 (IKBKAP^Δ20 mRNA) [nM] | IC50 [1, 6] [nM] | EC50 [1, 7] [nM] | IC50 (A-673 cells; [8]) [nM] | further results
1 | C[C@]12CC[C@](C)(C[C@@H](Oc3ccc(-c4ccc(-c5cn[nH]c5)cc4O)nn3)C1)N2 [compound 152, 2-(6-(((1R,3s,5S)-1,5-dimethyl-8-azabicyclo[3.2.1]octan-3-yl)oxy)pyridazin-3-yl)-5-(1H-pyrazol-4-yl)phenol] | 351 to 1000 | > 1000 |  |  |  | IC50 [1, 3]: 10 to 100 nM; EC50 [1, 4]: 10 to 100 nM; IC50 (A-673 cells; [5]): 101 to 250 nM
2 | CN(c1ccc(-c2ccc(-c3cn[nH]c3)cc2O)nn1)[C@@H]1C[C@H]2COC[C@@H](C1)N2 [compound 154, 2-(6-(((1R,5S,7r)-3-oxa-9-azabicyclo[3.3.1]nonan-7-yl)(methyl)amino)pyridazin-3-yl)-5-(1H-pyrazol-4-yl)phenol] | 351 to 1000 |  |  |  |  | IC50 [1, 3]: 10 to 100 nM; EC50 [1, 4]: 10 to 100 nM; IC50 (A-673 cells; [5]): 10 to 100 nM
3 | CN(c1ccc(-c2cc(F)c(-c3cn[nH]c3)cc2O)nn1)[C@@H]1C[C@H]2CC[C@@H](C1)N2 [compound 161, 2-(6-(((1R,3s,5S)-8-azabicyclo[3.2.1]octan-3-yl)(methyl)amino)pyridazin-3-yl)-4-fluoro-5-(1H-pyrazol-4-yl)phenol] | < 100 | < 200 |  |  |  | IC50 [1, 3]: < 10 nM; EC50 [1, 4]: < 10 nM; IC50 (A-673 cells; [5]): < 10 nM
4 | CN(c1ccc(-c2cc3cccnc3cc2O)nn1)[C@@H]1C[C@H]2CC[C@@H](C1)N2 [compound 162, 6-(6-(((1R,3s,5S)-8-azabicyclo[3.2.1]octan-3-yl)(methyl)amino)pyridazin-3-yl)quinolin-7-ol] |  | 201 to 1000 |  |  |  | IC50 (A-673 cells; [5]): 251 to 500 nM
5 | CN(c1ccc(-c2ccc(-n3ccnc3)cc2O)nn1)[C@@H]1C[C@H]2CC[C@@H](C1)N2 [compound 217, 2-(6-(((1R,3s,5S)-8-azabicyclo[3.2.1]octan-3-yl)(methyl)amino)pyridazin-3-yl)-5-(1H-imidazol-1-yl)phenol] | 351 to 1000 | 201 to 1000 | 10 to 100 | < 10 | 10 to 100 | 
6 | Cc1cn(-c2ccc(-c3ccc(N(C)[C@@H]4C[C@H]5CC[C@@H](C4)N5)nn3)c(O)c2)cn1 [compound 218, 2-(6-(((1R,3s,5S)-8-azabicyclo[3.2.1]octan-3-yl)(methyl)amino)pyridazin-3-yl)-5-(4-methyl-1H-imidazol-1-yl)phenol] | 351 to 1000 | > 1000 | < 10 | < 10 | 10 to 100 | 
7 | CN(c1ccc(-c2ccc(-n3nccn3)cc2O)nn1)[C@@H]1C[C@H]2CC[C@@H](C1)N2 [compound 223, 2-(6-(((1R,3s,5S)-8-azabicyclo[3.2.1]octan-3-yl)(methyl)amino)pyridazin-3-yl)-5-(2H-1,2,3-triazol-2-yl)phenol] | 101 to 350 | > 1000 | < 10 | < 10 | 10 to 100 | IC50 ([1]; Homo sapiens, A-375, 24 h, A-375 cells, 24 hours, table does not say EC50 or IC50, read-out: FOXM1): 11 to 100 nM; IC50 ([1]; Homo sapiens, BXPC-3, 24 h, BxPC-3 cells, 24 hours, table does not say EC50 or IC50, read-out: FOXM1): 200 to 500 nM; IC50 ([1]; Homo sapiens, DU-145, 24 h, DU-145 cells, 24 hours, table does not say EC50 or IC50, read-out: FOXM1): 200 to 500 nM; IC50 ([1]; Homo sapiens, Daoy, 24 h, Daoy cells, 24 hours, table does not say EC50 or IC50, read-out: FOXM1): 101 to 200 nM; IC50 ([1]; Homo sapiens, G-401, 24 h, G-401 cells, 24 hours, table does not say EC50 or IC50, read-out: FOXM1): 11 to 100 nM; IC50 ([1]; Homo sapiens, SH-SY5Y, 24 h, SH-SY5Y cells, 24 hours, table does not say EC50 or IC50, read-out: FOXM1): 11 to 100 nM; IC50 ([1]; Homo sapiens, TT, 24 h, T.T cells, 24 hours, table does not say EC50 or IC50, read-out: FOXM1): 101 to 200 nM
8 | Cc1ncc(-c2ccc(-c3ccc(N(C)[C@@H]4C[C@H]5CC[C@@H](C4)N5)nn3)c(O)c2)o1 [compound 228, 2-(6-(((1R,3s,5S)-8-azabicyclo[3.2.1]octan-3-yl)(methyl)amino)pyridazin-3-yl)-5-(2-methyloxazol-5-yl)phenol] | 351 to 1000 | > 1000 | 10 to 100 | < 10 | 10 to 100 | 
9 | CN(c1ccc(-c2ccc(-c3cnn(C)c(=O)c3)cc2O)nn1)[C@@H]1C[C@H]2CC[C@@H](C1)N2 [compound 238, 5-(4-(6-(((1R,3s,5S)-8-azabicyclo[3.2.1]octan-3-yl)(methyl)amino)pyridazin-3-yl)-3-hydroxyphenyl)-2-methylpyridazin-3(2H)-one] | 101 to 350 | 201 to 1000 | 10 to 100 | < 10 | 10 to 100 | 
10 | CN(c1ccc(-c2ccc(-c3ccn(C)c(=O)c3)cc2O)nn1)[C@@H]1C[C@H]2CC[C@@H](C1)N2 [compound 240, 4-(4-(6-(((1R,3s,5S)-8-azabicyclo[3.2.1]octan-3-yl)(methyl)amino)pyridazin-3-yl)-3-hydroxyphenyl)-1-methylpyridin-2(1H)-one] | 101 to 350 | 201 to 1000 | < 10 | < 10 | 10 to 100 | 
11 | Cc1nnnn1-c1ccc(-c2ccc(O[C@@H]3C[C@H]4CC[C@@H](C3)N4)nn2)c(O)c1 [compound 257, 2-(6-(((1R,3s,5S)-8-azabicyclo[3.2.1]octan-3-yl)oxy)pyridazin-3-yl)-5-(5-methyl-1H-tetrazol-1-yl)phenol] |  |  |  |  | > 1000 | IC50 [2]: 121 nM
12 | CN(c1ccc(-c2ccc(-c3cc(=O)n(C)cn3)cc2O)nn1)[C@H]1C[C@]2(C)CCC[C@](C)(C1)N2 [compound 266, 6-(4-(6-(((1R,3s,5S)-1,5-dimethyl-9-azabicyclo[3.3.1]nonan-3-yl)(methyl)amino)pyridazin-3-yl)-3-hydroxyphenyl)-3-methylpyrimidin-4(3H)-one] | < 100 | < 200 |  |  | 10 to 100 | 
13 | Oc1cc(-c2cn[nH]c2)c(F)cc1-c1ccc(O[C@@H]2C[C@H]3CCC[C@@H](C2)N3)nn1 [compound 278, 2-(6-(((1R,3s,5S)-9-azabicyclo[3.3.1]nonan-3-yl)oxy)pyridazin-3-yl)-4-fluoro-5-(1H-pyrazol-4-yl)phenol] | 101 to 350 | < 200 |  |  | 10 to 100 | 
14 | [2H]C([2H])([2H])n1ncc(-c2ccc(-c3ccc(N(C)[C@@H]4C[C@H]5CC[C@@H](C4)N5)nn3)c(O)c2)cc1=O [compound 282, 5-(4-(6-(((1R,3s,5S)-8-azabicyclo[3.2.1]octan-3-yl)(methyl)amino)pyridazin-3-yl)-3-hydroxyphenyl)-2-(methyl-d3)pyridazin-3(2H)-one] | 101 to 350 | 201 to 1000 | 10 to 100 | < 10 | 10 to 100 | 
15 | CN(c1ccc(-c2ccc(-c3cn[nH]c3)cc2O)nn1)C1[C@H]2CN(C(=O)CCN)C[C@@H]12 (stereo partly drawn) [compound 315, 3-amino-1-((1R,5S)-6-((6-(2-hydroxy-4-(1H-pyrazol-4-yl)phenyl)pyridazin-3-yl)(methyl)amino)-3-azabicyclo[3.1.0]hexan-3-yl)propan-1-one] | > 1000 | > 1000 |  |  |  | 
